Here are results for one compound from ChEMBL document CHEMBL4680085 (J Med Chem, 2016).

The test system of data set [1] is SH-SY5Y. The experiment in a line: Neuroprotection in human SH-SY5Y cells assessed as reduction in Rotenone/Oligomycin A -induced cell death at >0.01 uM incubated for 24 hrs by MTT assay. Format: functional, cell-based. The settings on record: dose microM >0.01, time […]. A general note: Tetrazolium assays rely on reduction of a dye to a coloured formazan, in cell work by metabolically active cells.

Data set [2] relates to SH-SY5Y. The experiment in a line: Neuroprotection in human SH-SY5Y cells assessed as reduction in H2O2-induced cell death at 1 uM incubated for 24 hrs by MTT assay. Format: functional. Details: scale not given: the % may be the effect or the level left.
Data set [3] concerns SH-SY5Y. The data set can be described thus: Neuroprotection in human SH-SY5Y cells assessed as reduction in beta-amyloid peptide (1-40)-induced cell death at 1 uM incubated for 24 hrs by MTT assay. On the set-up: scale not given: the % may be the effect or the level left. Format: functional.
A short description of data set [4]: in vitro. The following applies: human, HepG2 cells.
Description: Toxicity in human HepG2 cells assessed as cell viability at 1000 uM by MTT assay relative to control
The target in data set [5] is T1, Nuclear factor erythroid 2-related factor 2 (Homo sapiens) (UniProt Q16236).
T1 sequence (whole entry): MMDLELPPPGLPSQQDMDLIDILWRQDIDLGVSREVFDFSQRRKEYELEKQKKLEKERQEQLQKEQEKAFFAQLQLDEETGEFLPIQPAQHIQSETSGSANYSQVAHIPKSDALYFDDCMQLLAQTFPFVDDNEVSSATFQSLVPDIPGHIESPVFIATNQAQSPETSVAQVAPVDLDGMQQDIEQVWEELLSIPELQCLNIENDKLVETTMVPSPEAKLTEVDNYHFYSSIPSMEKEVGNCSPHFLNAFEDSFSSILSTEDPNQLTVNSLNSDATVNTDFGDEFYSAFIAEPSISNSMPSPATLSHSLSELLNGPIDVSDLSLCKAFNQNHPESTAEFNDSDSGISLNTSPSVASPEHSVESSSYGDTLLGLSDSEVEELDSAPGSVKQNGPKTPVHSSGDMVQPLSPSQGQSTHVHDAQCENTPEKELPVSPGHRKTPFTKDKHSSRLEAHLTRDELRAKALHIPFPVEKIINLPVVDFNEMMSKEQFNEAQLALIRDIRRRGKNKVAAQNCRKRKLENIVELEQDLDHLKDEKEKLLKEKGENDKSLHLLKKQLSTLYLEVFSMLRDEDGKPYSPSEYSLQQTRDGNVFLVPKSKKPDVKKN
The experiment in a line: Activation of NRF2 in human MCF-7/AREc32 cells at 3 uM incubated for 24 hrs by luciferase reporter gene assay. Format: cell-based. The settings on record: MCF7, filed as activator. Background: Reporter assays use an easily measured gene product as a stand-in for the process of interest.

The subject of data set [6] is SH-SY5Y. The data set can be described thus: Neuroprotection in human SH-SY5Y cells assessed as reduction in H2O2-induced cell death at 0.01 uM incubated for 24 hrs by MTT assay. Format: functional. On the set-up: scale not given: the % may be the effect or the level left.
Data set [7] relates to SH-SY5Y. The experiment in a line: Neuroprotection in human SH-SY5Y cells assessed as reduction in beta-amyloid peptide (1-42)-induced cell death at 0.01 uM incubated for 24 hrs by MTT assay. Details: scale not given: the % may be the effect or the level left. Format: functional.
The target in data set [8] is T1, Nuclear factor erythroid 2-related factor 2 (Homo sapiens). The data set can be described thus: Activation of NRF2 in human MCF-7/AREc32 cells at 10 to 30 uM incubated for 24 hrs by luciferase reporter gene assay. Format: cell-based. The settings on record: MCF7, filed as activator, dose 10-30 µM.
Data set [9] relates to SH-SY5Y. The data set can be described thus: Neuroprotection in human SH-SY5Y cells assessed as reduction in beta-amyloid peptide (1-42)-induced cell death at >0.01 uM incubated for 24 hrs by MTT assay. Format: functional, cell-based. The following applies: dose microM >0.01, time […].
The test system of data set [10] is SH-SY5Y. The data set can be described thus: Neuroprotection in human SH-SY5Y cells assessed as reduction in beta-amyloid peptide (1-40)-induced cell death at 3 uM incubated for 24 hrs by MTT assay. On the set-up: scale not given: the % may be the effect or the level left. Format: functional.
Data set [11] has as its system SH-SY5Y. The experiment in a line: Neuroprotection in human SH-SY5Y cells assessed as reduction in beta-amyloid peptide (1-40)-induced cell death at 0.01 uM incubated for 24 hrs by MTT assay. Format: functional. On the set-up: scale not given: the % may be the effect or the level left.
The subject of data set [12] is SH-SY5Y. The data set can be described thus: Neuroprotection in human SH-SY5Y cells assessed as reduction in beta-amyloid peptide (1-40)-induced cell death at >0.01 uM incubated for 24 hrs by MTT assay. The settings on record: dose microM >0.01, time […]. Format: functional, cell-based.
In data set [13] the test system is SH-SY5Y. The experiment in a line: Neuroprotection in human SH-SY5Y cells assessed as reduction in beta-amyloid peptide (1-42)-induced cell death at 1 uM incubated for 24 hrs by MTT assay. Format: functional. On the set-up: scale not given: the % may be the effect or the level left.
The subject of data set [14] is SH-SY5Y. The experiment in a line: Neuroprotection in human SH-SY5Y cells assessed as reduction in Rotenone/Oligomycin A -induced cell death at 1 uM incubated for 24 hrs by MTT assay. Format: functional. Details: scale not given: the % may be the effect or the level left.
In data set [15] the test system is SH-SY5Y. The data set can be described thus: Neuroprotection in human SH-SY5Y cells assessed as reduction in beta-amyloid peptide (1-42)-induced cell death at 3 uM incubated for 24 hrs by MTT assay. Details: scale not given: the % may be the effect or the level left. Format: functional.
For data set [16], the system named is SH-SY5Y. The data set can be described thus: Neuroprotection in human SH-SY5Y cells assessed as reduction in Rotenone/Oligomycin A -induced cell death at 0.01 uM incubated for 24 hrs by MTT assay. Format: functional. Details: scale not given: the % may be the effect or the level left.
In data set [17] the test system is SH-SY5Y. The data set can be described thus: Neuroprotection in human SH-SY5Y cells assessed as reduction in H2O2-induced cell death at 3 uM incubated for 24 hrs by MTT assay. Format: functional. On the set-up: scale not given: the % may be the effect or the level left.
Data set [18] deals with T1, Nuclear factor erythroid 2-related factor 2 (Homo sapiens). The data set can be described thus: Activation of NRF2 in human MCF-7/AREc32 cells assessed as concentration required to double Nrf2 transcriptional pathway by measuring specific luciferase reporter activity incubated for 24 hrs by luciferase reporter gene assay. Format: cell-based. The settings on record: MCF7.

Data set [19] deals with SH-SY5Y. The experiment in a line: Neuroprotection in human SH-SY5Y cells assessed as reduction in Rotenone/Oligomycin A -induced cell death at 3 uM incubated for 24 hrs by MTT assay. Format: functional. On the set-up: scale not given: the % may be the effect or the level left.
The nature of data set [20]: in vitro. The following applies: human, HepG2 cells. This is another data set of the same source.
Description: Toxicity in human HepG2 cells assessed as cell viability at 100 uM by MTT assay relative to control
A short description of data set [21]: in vitro. The following applies: human, HepG2 cells. This is another data set of the same source.
Description: Toxicity in human HepG2 cells assessed as cell viability at 300 uM by MTT assay relative to control
In data set [22] the test system is SH-SY5Y. The experiment in a line: Neuroprotection in human SH-SY5Y cells assessed as reduction in H2O2-induced cell death at >0.01 uM incubated for 24 hrs by MTT assay. Format: functional, cell-based. The following applies: dose microM >0.01, time […].

Calls of active or inactive are those of the source. The calls are words filed in the database; no cut-off is given here.

With `COc1ccc2[nH]cc(CCNC(C)=O)c2c1` [MELATONIN], the outcome in the data set on SH-SY5Y [1], in the data set on SH-SY5Y [9], in the data set with SH-SY5Y [12] and with SH-SY5Y [22] was inactive. The Activity in the data set with SH-SY5Y [2] is given as 47.4%; in the data set with SH-SY5Y [3], 35.5%; with SH-SY5Y [6] it was 55.4%; in the data set with SH-SY5Y [7], 81.4%; in the data set with SH-SY5Y [10], 60.2%; with SH-SY5Y [11] it was 33%. Further, the Activity in the data set on SH-SY5Y [13] turned out to be 39.4%; with SH-SY5Y [14] it was 50.1%; with SH-SY5Y [15], 15.3%; in the data set on SH-SY5Y [16], 66.6%; with SH-SY5Y [17] it was 60.7%; in the data set on SH-SY5Y [19], 59.1%. In the data set “in vitro [4]”, this compound came in with a viability at 1000 µM of 72.3%. Moreover, the result in data set [5] and in [8] was Active. Also, in data set [18], the CD was more than 60 µM. Further, the viability at 100 µM in the data set “in vitro [20]” came out at 91.4%. The same compound showed a viability at 300 µM in “in vitro [21]” of 71.8%.

One may read the viability as a read-out of living cells in per cent, often relative to untreated cells.
